Paper PMC4976367, “Dimethyl fumarate blocks pro-inflammatory cytokine production via inhibition of TLR induced M1 and K63 ubiquitin chain formation” (Scientific Reports, 2016)
Structures can show the parent of a compound that is named as a salt.

Columns and labels:
Assay type in all cases: biochemical
Ubc13 = biological target: T1, Ubc13 (Homo sapiens, UniProt P61088); test: MALDI-TOF intact mass shift (covalent adduct, +[…] Da); IC50 from E2 ubiquitin loading assay with purified UBE1 and E2
T1 construct: gene UBE2N; recombinant Ubc13
T1 sequence (P61088 1-152): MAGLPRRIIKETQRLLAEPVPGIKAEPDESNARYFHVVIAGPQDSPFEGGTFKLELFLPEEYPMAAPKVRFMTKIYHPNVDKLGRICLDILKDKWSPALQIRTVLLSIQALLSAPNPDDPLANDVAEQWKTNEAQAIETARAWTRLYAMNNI

Ube2W = Ube2W (Homo sapiens, UniProt Q96B02); test: E2 ubiquitin loading assay, panel of […] E2s at two fixed DMF concentrations
Sequence of Ube2W (Q96B02 whole entry, one chain of several): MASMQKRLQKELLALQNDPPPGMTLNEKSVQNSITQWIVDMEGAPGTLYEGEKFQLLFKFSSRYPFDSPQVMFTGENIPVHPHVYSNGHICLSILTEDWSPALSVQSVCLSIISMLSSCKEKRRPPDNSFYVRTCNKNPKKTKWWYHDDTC

Ube2T = biological target: T2, Ube2T (Homo sapiens, UniProt Q9NPD8); test: as above
T2 sequence (Q9NPD8 1-197): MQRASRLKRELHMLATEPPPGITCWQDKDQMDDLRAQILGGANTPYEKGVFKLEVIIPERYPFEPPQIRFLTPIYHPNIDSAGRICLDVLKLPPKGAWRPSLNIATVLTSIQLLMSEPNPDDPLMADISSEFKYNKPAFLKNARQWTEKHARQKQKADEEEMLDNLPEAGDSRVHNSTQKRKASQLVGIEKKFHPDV

UbcH7 = biological target: T3, UbcH7 (Homo sapiens, UniProt P68036); test: MALDI-TOF intact mass shift (covalent adducts, +[…] and +[…] Da); IC50 from E2 ubiquitin loading assay with purified UBE1 and E2
T3 construct: gene UBE2L3; recombinant UbcH7
T3 sequence (P68036 whole entry, one chain of several): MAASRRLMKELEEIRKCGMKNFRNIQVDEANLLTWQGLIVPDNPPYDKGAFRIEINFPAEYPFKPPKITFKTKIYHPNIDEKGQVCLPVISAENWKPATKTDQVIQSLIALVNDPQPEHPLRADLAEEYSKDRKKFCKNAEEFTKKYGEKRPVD

Ube2R1 = biological target: T4, Ube2R1 (Homo sapiens, UniProt P49427); test: E2 ubiquitin loading assay, panel of […] E2s at two fixed DMF concentrations
T4 construct: gene CDC34
T4 sequence (P49427 1-236): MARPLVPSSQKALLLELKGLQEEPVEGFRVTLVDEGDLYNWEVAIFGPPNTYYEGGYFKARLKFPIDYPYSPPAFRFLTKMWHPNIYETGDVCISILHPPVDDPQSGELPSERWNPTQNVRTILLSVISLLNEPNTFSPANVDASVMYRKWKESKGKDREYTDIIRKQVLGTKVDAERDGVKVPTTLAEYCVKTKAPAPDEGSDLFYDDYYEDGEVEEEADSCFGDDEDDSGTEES

Ube2S = biological target: T5, Ube2S (Homo sapiens, UniProt Q16763); test: as above
T5 sequence (Q16763 1-222): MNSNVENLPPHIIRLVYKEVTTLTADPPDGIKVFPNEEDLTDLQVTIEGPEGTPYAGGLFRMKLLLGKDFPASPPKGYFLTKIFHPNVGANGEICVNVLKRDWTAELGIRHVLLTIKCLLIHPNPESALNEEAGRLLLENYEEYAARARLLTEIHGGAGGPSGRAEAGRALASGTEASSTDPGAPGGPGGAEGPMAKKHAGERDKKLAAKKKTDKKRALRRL
T5 sequence (P22314 2-1058 partner): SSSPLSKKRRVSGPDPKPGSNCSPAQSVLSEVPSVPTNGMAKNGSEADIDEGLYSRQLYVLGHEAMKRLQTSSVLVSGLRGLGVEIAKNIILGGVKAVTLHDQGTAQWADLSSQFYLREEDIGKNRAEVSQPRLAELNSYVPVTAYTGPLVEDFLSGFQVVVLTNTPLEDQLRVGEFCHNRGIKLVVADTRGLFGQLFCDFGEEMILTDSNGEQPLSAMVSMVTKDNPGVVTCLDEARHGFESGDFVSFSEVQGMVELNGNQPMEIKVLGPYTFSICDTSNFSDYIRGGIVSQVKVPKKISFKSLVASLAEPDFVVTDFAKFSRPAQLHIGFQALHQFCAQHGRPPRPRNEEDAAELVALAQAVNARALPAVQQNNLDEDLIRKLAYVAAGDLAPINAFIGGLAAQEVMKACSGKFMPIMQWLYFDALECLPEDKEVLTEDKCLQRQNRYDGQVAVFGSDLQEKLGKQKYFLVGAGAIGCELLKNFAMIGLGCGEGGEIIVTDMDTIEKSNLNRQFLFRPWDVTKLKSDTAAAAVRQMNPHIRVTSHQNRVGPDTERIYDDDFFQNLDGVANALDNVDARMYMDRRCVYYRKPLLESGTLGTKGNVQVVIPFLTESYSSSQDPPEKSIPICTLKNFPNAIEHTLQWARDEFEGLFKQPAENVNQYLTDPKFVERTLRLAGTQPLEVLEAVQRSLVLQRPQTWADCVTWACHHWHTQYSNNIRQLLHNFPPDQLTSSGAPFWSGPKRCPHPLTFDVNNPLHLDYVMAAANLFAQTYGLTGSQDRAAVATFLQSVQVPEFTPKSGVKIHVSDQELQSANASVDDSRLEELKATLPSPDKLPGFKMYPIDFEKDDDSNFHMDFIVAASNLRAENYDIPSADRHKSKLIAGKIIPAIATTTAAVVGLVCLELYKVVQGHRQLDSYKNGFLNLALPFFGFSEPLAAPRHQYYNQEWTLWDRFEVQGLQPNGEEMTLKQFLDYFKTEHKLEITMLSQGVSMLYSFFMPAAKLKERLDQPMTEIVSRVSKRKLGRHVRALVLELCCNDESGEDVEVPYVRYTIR

Question: Which results are given for `COC(=O)/C=C/C(=O)OC` [Dimethyl fumarate]?
Answer: IC50 (Ubc13): 10 to 20 µM; E2 ubiquitin loading assay, panel of 24 E2s at two fixed DMF concentrations (Ube2W): UbcH7, Ube2W, Ube2T, Ube2S and Ube2R1 being most strongly inhibited; E2 ubiquitin loading assay, panel of 24 E2s at two fixed DMF concentrations (Ube2T): UbcH7, Ube2W, Ube2T, Ube2S and Ube2R1 being most strongly inhibited; IC50 (UbcH7): < 10 µM; E2 ubiquitin loading assay, panel of 24 E2s at two fixed DMF concentrations (Ube2R1): UbcH7, Ube2W, Ube2T, Ube2S and Ube2R1 being most strongly inhibited; E2 ubiquitin loading assay, panel of 24 E2s at two fixed DMF concentrations (Ube2S): UbcH7, Ube2W, Ube2T, Ube2S and Ube2R1 being most strongly inhibited
